{"source": "patent US7977375B2", "about": "“Antibiotic and method of production thereof” (Helmholtz-Zentrum Für Infektionsforschung GmbH, priority 2004, dated 2011)", "key": {"E. faecium VRAR E315 [1]": {"test_system": "E. faecium VRAR E315", "experiment": "MIC / MBC in liquid culture", "assay_type": "cell-based, Enterococcus faecium", "conditions": "Enterococcus faecium, VRARE315, read-out: MIC (minimal inhibitory concentration)"}, "E. faecalis VRAS E305 [2]": {"test_system": "E. faecalis VRAS E305", "experiment": "agar diffusion method, inhibition zone", "assay_type": "cell-based, Enterococcus faecalis", "conditions": "for Inhibition zone: E. faecalis VRAS E305, MH agar, 18 hours at 37° C., per disk 10 μl crude extract, 50 μg macrolactin, 78 μg erythromycin, 30 μg vancomycin, 10 μg ampicillin", "experimental": "(§1) The agar diffusion method employing Mueller-Hinton (MH) agar (Difco Laboratories) was used to determine effectiveness against bacteria and yeasts. Sterile paper disks (Schleicher & Schüell, Germany) were seeded with 10 μl crude extract or with a solution of purified macrolactin (final compound concentration on the disk 50 μg) and then placed on the surface of MH-agar plates that had been seeded beforehand with a suspension of overnight culture of the test microorganisms at a concentration of 10^5 cells/ml."}, "E. faecalis ATCC 29212 [3]": {"test_system": "E. faecalis ATCC 29212", "experiment": "agar diffusion method, inhibition zone", "assay_type": "cell-based, Enterococcus faecalis", "experimental": "as §1"}, "MRSA 3": {"test_system": "MRSA 3", "experiment": "MIC / MBC in liquid culture", "assay_type": "cell-based, Staphylococcus aureus", "conditions": "Staphylococcus aureus, MRSA, read-out: MIC (minimal inhibitory concentration)"}, "E. faecium VRAR E315 [4]": {"test_system": "E. faecium VRAR E315", "experiment": "agar diffusion method, inhibition zone", "assay_type": "cell-based, Enterococcus faecium", "experimental": "as §1"}, "E. faecalis VRAS E305 [5]": {"test_system": "E. faecalis VRAS E305", "experiment": "MIC / MBC in liquid culture", "assay_type": "cell-based, Enterococcus faecalis", "conditions": "Enterococcus faecalis, VRASE305, read-out: MIC (minimal inhibitory concentration)"}, "MRSA 2": {"test_system": "MRSA 2", "experiment": "MIC / MBC in liquid culture", "assay_type": "cell-based, Staphylococcus aureus", "conditions": "Staphylococcus aureus, MRSA, read-out: MIC (minimal inhibitory concentration)"}, "[6]": {"test_system": "S. aureus # (non-methicillin-resistant reference strain)", "experiment": "MIC / MBC in liquid culture", "assay_type": "cell-based, Staphylococcus aureus", "conditions": "Staphylococcus aureus, read-out: MIC (minimal inhibitory concentration)"}, "[7]": {"test_system": "S. aureus # (own collection, methicillin-sensitive control strain)", "experiment": "agar diffusion method, inhibition zone", "assay_type": "cell-based, Staphylococcus aureus", "experimental": "as §1"}, "S. aureus DSMZ 1104": {"test_system": "S. aureus DSMZ 1104", "experiment": "agar diffusion method, inhibition zone", "assay_type": "cell-based, Staphylococcus aureus", "experimental": "as §1"}, "[8]": {"test_system": "MRSA 3 (methicillin-resistant S. aureus, clinical isolate)", "experiment": "agar diffusion method, inhibition zone", "assay_type": "cell-based, Staphylococcus aureus", "experimental": "as §1"}, "[9]": {"test_system": "MRSA 2 (methicillin-resistant S. aureus, clinical isolate)", "experiment": "agar diffusion method, inhibition zone", "assay_type": "cell-based, Staphylococcus aureus", "experimental": "as §1"}, "E. faecalis ATCC 29212 [10]": {"test_system": "E. faecalis ATCC 29212", "experiment": "MIC / MBC in liquid culture", "assay_type": "cell-based, Enterococcus faecalis", "conditions": "Enterococcus faecalis, ATCC29212, read-out: MIC (minimal inhibitory concentration)"}, "[11]": {"test_system": "L929 mouse fibroblast cells", "experiment": "inhibition of proliferation, CyQUANT cell proliferation test", "assay_type": "cell-based", "conditions": "5 days", "experimental": "The cytotoxicity of 7-O-malonyl macrolactin A was compared to that of 7-O-succinyl macrolactin A and macrolactin A in vitro with respect to the inhibition of the proliferation of L929 mouse fibroblast cells or the human epithelial cell line HeLa.\nFor the cell culture, the HeLa cells were cultivated in low-glucose DMEM medium (Gibco), and the L929 cells in high-glucose DMEM medium. Both were supplemented with 10% by volume foetal calf serum (Gibco) at 37° C. in an atmosphere containing 5% CO2. The cells were extracted from stock cultures by means of trypsinization with EDTA (HeLa) or without EDTA (L929), then counted and diluted to 2×10^5 cells/ml. For the tests, microtitre plates (Nunc.) comprising 96 depressions were plated out in serial dilution without or in the presence of the test compounds or methanol. Determination of morphological alterations of the cells was carried out by means of phase contrast microscopy after 1, 2 and 5 days incubation.\nAfter 5 days cultivation, cell counts were determined by the CyQUANT cell proliferation test (Molecular Probes), which is a highly sensitive microtitre plate test based on fluorescence. The test employs the dye CyQUANT, which, by binding to cellular nucleic acids, enhances fluorescence, which can then be measured by fluorescein excitation. The emission of fluorescence by the dye-nucleic acid complex correlated linearly with the cell count. For test purposes, the residue was carefully removed after 5 days incubation, the cells washed with PBS (phosphate buffered saline solution), the buffer removed and the cells frozen at −80° C. For the test, the cells were thawed at ambient temperature and lysated in a buffered solution containing the dye CyQUANT, in accordance with manufacturer's instructions. Fluorescence was measured by means of a fluormetric microtitre-plate reader (Titertex Fluorskan II) (excitation at 480 nm, emission at 520 nm). The […] were used to calculate the percentage of cellular proliferation in medium both alone and in the presence of serial dilutions of methanol and the macrolactin compounds. […] Proliferation was measured by means of the fluorescence-based test CyQUANT for determining viable cell counts. Table 5 illustrates the relative inhibition of proliferation as compared to a control culture comprising fresh medium without the addition of a macrolactin."}, "B. cepacia SCV 141": {"test_system": "B. cepacia SCV 141", "experiment": "agar diffusion method, inhibition zone", "assay_type": "cell-based, Burkholderia cepacia", "conditions": "MH agar, 18 hours at 37° C., per disk 10 μl crude extract, 50 μg macrolactin, 78 μg erythromycin, 10 μg ampicillin", "experimental": "as §1\nThe B. cepacia strain used, which is a clinical isolate from a cystic fibrosis patient, forms small colonies (SCV 141)."}, "[12]": {"conditions": "Staphylococcus aureus, MRSA, 18 h, read-out: Inhibition zone"}, "[13]": {"conditions": "listed as 7-O-Succinyl-macrolactin A"}}}
{"smiles": "CN[C@H](CC(C)C)C(=O)N[C@H]1C(=O)N[C@@H](CC(N)=O)C(=O)N[C@H]2C(=O)N[C@H]3C(=O)N[C@H](C(=O)N[C@H](C(=O)O)c4cc(O)cc(O)c4-c4cc3ccc4O)[C@H](O)c3ccc(c(Cl)c3)Oc3cc2cc(c3O[C@@H]2O[C@H](CO)[C@@H](O)[C@H](O)[C@H]2O[C@H]2C[C@](C)(N)[C@H](O)[C@H](C)O2)Oc2ccc(cc2Cl)[C@H]1O", "note": "[Vancomycin, vancomycin]", "values": [{"measurement": "MIC", "setting": "E. faecium VRAR E315 [1]", "value": "> 128", "unit": "µg/mL"}, {"measurement": "zone of inhibition at 30 µg/disc", "setting": "E. faecalis VRAS E305 [2]; Enterococcus faecalis, VRASE305, 18 h, read-out: Inhibition zone", "value": 0, "unit": "mm"}, {"measurement": "zone of inhibition at 30 µg/disc", "setting": "E. faecalis ATCC 29212 [3]; Enterococcus faecalis, ATCC29212, 18 h, read-out: Inhibition zone", "value": 24, "unit": "mm"}, {"measurement": "MIC", "setting": "MRSA 3", "value": 1, "unit": "µg/mL"}, {"measurement": "zone of inhibition at 30 µg/disc", "setting": "E. faecium VRAR E315 [4]; Enterococcus faecium, VRARE315, 18 h, read-out: Inhibition zone", "value": 0, "unit": "mm"}, {"measurement": "MIC", "setting": "E. faecalis VRAS E305 [5]", "value": "> 128", "unit": "µg/mL"}, {"measurement": "MIC", "setting": "MRSA 2", "value": 2, "unit": "µg/mL"}, {"measurement": "MIC", "setting": "[6]", "value": 0.125, "unit": "µg/mL"}, {"measurement": "zone of inhibition at 30 µg/disc", "setting": "[7]; Staphylococcus aureus, 18 h, read-out: Inhibition zone", "value": 27, "unit": "mm"}, {"measurement": "zone of inhibition at 30 µg/disc", "setting": "S. aureus DSMZ 1104; Staphylococcus aureus, DSMZ1104, 18 h, read-out: Inhibition zone", "value": 20, "unit": "mm"}, {"measurement": "zone of inhibition at 30 µg/disc", "setting": "[8]; [12]", "value": 24, "unit": "mm"}, {"measurement": "zone of inhibition at 30 µg/disc", "setting": "[9]; [12]", "value": 24, "unit": "mm"}, {"measurement": "MIC", "setting": "E. faecalis ATCC 29212 [10]", "value": 2, "unit": "µg/mL"}]}
{"smiles": "CC1CCCC=CC=CC(O)CC(O)CC=CC=CC(OC(=O)CCC(=O)O)CC=CC=CC(=O)O1", "note": "(stereo not shown) [7-O-succinyl macrolactin A]", "values": [{"measurement": "Inhibition zone", "setting": "E. faecalis VRAS E305 [2]", "value": "no activity"}, {"measurement": "Inhibition zone", "setting": "E. faecalis VRAS E305 [2]; [13]", "value": 0, "unit": "mm"}, {"measurement": "Inhibition zone", "setting": "E. faecalis ATCC 29212 [3]; E. faecalis ATCC 29212, MH agar, 18 hours at 37° C., per disk 10 μl crude extract, 50 μg macrolactin, 78 μg erythromycin, 30 μg vancomycin, 10 μg ampicillin", "value": 12, "unit": "mm"}, {"measurement": "Inhibition of proliferation", "setting": "[11]; compound concentration 3.9 μg/ml", "value": 0, "unit": "%"}, {"measurement": "Inhibition of proliferation", "setting": "[11]; compound concentration 15.6 μg/ml", "value": 0, "unit": "%"}, {"measurement": "Inhibition of proliferation", "setting": "[11]; compound concentration 31.25 μg/ml", "value": 55, "unit": "%"}, {"measurement": "Inhibition of proliferation", "setting": "[11]; compound concentration 56.5 μg/ml", "value": 83, "unit": "%"}, {"measurement": "Inhibition of proliferation", "setting": "[11]; compound concentration 125 μg/ml", "value": 87, "unit": "%"}, {"measurement": "Inhibition zone", "setting": "E. faecium VRAR E315 [4]; E. faecium VRAR E315, MH agar, 18 hours at 37° C., per disk 10 μl crude extract, 50 μg macrolactin, 78 μg erythromycin, 30 μg vancomycin, 10 μg ampicillin", "value": 20, "unit": "mm"}, {"measurement": "Inhibition zone", "setting": "B. cepacia SCV 141", "value": "no activity"}, {"measurement": "Inhibition zone", "setting": "B. cepacia SCV 141; [13]", "value": 0, "unit": "mm"}, {"measurement": "Inhibition zone", "setting": "[7]; S. aureus # own collection, MH agar, 18 hours at 37° C., per disk 10 μl crude extract, 50 μg macrolactin, 78 μg erythromycin, 30 μg vancomycin, 10 μg ampicillin", "value": 22, "unit": "mm"}, {"measurement": "Inhibition zone", "setting": "S. aureus DSMZ 1104; S. aureus DSMZ 1104, MH agar, 18 hours at 37° C., per disk 10 μl crude extract, 50 μg macrolactin, 78 μg erythromycin, 30 μg vancomycin, 10 μg ampicillin", "value": 18, "unit": "mm"}, {"measurement": "Inhibition zone", "setting": "[8]; MRSA 3, MH agar, 18 hours at 37° C., per disk 10 μl crude extract, 50 μg macrolactin, 78 μg erythromycin, 30 μg vancomycin, 10 μg ampicillin", "value": 38, "unit": "mm"}, {"measurement": "Inhibition zone", "setting": "[9]; MRSA 2, MH agar, 18 hours at 37° C., per disk 10 μl crude extract, 50 μg macrolactin, 78 μg erythromycin, 30 μg vancomycin, 10 μg ampicillin", "value": 37, "unit": "mm"}]}
